In US20230416248A1, “COMPOUNDS AND USES THEREOF” (Foghorn Therapeutics Inc., priority 2020, published 2023):

Columns and labels:
BRM = molecular target: T1, BRM (Homo sapiens, UniProt P51531); experiment: ATPase catalytic activity of BRM, ADP-Glo in vitro biochemical assay; conditions: for IC50: ADP-Glo ATPase assay, 30 nM BRM, 400 μM ATP; for Ratio* (BRG1 IC50 (μM) divided by BRM IC50 (μM)): selectivity ratio BRG1 IC50 / BRM IC50
T1 construct: made in house; host or cells: High Five insect cells
Summary of the method: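 ADP-Glo luminescence, after depletion of leftover ATP and conversion of ADP, reported the activity. The 1 h room-temperature reaction held 400 μM ATP, 20 nM salmon sperm DNA and 30 nM BRM in 20 mM Tris pH 8, 20 mM MgCl2, 50 mM NaCl, 0.1% Tween-20, 1 mM DTT.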

BRG-1 = molecular target: T2, BRG-1 (Homo sapiens, UniProt P51532); experiment: ATPase catalytic activity of BRG-1, ADP-Glo in vitro biochemical assay; conditions: ADP-Glo ATPase assay, 30 nM BRG-1, 400 μM ATP; read-out: BRG1 IC50
T2 construct: made in house; host or cells: High Five insect cells
Summary of the method: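 Luminescence read-out: ADP formed by BRG-1 ATPase is converted to ATP and detected by luciferase. Residual ATP is first removed with ADP-Glo Reagent for 40 min at RT; detection reagent is then incubated 60 min at RT before reading.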

T2 sequence (P51532 whole entry): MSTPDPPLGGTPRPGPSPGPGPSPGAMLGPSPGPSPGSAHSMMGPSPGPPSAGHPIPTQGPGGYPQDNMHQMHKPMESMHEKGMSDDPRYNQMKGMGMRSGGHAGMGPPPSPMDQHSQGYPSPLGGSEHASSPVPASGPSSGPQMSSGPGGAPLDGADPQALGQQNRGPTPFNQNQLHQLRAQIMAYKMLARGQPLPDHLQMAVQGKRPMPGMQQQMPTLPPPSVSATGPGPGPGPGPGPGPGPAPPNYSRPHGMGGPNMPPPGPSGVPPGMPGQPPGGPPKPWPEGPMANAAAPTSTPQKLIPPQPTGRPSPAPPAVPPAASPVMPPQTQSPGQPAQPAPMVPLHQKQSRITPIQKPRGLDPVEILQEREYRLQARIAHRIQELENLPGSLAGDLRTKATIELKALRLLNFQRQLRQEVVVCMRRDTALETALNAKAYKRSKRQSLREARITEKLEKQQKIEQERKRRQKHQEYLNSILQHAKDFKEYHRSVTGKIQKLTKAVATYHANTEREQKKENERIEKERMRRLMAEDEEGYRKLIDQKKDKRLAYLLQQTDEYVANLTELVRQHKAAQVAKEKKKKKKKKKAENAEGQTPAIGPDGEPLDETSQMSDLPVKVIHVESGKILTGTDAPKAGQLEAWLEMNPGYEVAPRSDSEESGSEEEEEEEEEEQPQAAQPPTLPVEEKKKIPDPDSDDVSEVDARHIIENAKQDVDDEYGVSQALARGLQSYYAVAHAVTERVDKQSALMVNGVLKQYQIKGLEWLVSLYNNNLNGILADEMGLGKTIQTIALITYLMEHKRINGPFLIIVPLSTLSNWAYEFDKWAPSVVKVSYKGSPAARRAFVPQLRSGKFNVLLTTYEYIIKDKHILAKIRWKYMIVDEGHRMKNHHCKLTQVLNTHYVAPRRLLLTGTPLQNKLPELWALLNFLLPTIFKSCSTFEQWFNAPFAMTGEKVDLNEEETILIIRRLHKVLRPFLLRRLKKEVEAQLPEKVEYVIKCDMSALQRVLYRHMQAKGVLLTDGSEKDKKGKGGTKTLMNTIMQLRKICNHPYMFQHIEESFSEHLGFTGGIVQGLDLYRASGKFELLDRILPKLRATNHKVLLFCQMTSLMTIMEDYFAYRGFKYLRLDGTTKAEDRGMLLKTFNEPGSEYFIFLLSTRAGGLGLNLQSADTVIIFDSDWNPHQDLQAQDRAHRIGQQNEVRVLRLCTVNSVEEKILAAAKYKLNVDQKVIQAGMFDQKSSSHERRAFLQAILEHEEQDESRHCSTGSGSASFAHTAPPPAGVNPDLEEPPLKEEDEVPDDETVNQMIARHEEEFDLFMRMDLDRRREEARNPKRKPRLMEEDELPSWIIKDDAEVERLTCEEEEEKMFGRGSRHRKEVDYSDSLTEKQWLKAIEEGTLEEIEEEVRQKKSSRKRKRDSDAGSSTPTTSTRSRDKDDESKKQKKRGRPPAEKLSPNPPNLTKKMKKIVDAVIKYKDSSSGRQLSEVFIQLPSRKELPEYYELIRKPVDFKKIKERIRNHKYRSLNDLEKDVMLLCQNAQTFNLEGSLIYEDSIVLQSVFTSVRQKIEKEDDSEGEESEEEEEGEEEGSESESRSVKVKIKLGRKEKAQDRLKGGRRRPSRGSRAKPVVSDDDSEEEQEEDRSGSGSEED
T1 sequence (P51531 whole entry): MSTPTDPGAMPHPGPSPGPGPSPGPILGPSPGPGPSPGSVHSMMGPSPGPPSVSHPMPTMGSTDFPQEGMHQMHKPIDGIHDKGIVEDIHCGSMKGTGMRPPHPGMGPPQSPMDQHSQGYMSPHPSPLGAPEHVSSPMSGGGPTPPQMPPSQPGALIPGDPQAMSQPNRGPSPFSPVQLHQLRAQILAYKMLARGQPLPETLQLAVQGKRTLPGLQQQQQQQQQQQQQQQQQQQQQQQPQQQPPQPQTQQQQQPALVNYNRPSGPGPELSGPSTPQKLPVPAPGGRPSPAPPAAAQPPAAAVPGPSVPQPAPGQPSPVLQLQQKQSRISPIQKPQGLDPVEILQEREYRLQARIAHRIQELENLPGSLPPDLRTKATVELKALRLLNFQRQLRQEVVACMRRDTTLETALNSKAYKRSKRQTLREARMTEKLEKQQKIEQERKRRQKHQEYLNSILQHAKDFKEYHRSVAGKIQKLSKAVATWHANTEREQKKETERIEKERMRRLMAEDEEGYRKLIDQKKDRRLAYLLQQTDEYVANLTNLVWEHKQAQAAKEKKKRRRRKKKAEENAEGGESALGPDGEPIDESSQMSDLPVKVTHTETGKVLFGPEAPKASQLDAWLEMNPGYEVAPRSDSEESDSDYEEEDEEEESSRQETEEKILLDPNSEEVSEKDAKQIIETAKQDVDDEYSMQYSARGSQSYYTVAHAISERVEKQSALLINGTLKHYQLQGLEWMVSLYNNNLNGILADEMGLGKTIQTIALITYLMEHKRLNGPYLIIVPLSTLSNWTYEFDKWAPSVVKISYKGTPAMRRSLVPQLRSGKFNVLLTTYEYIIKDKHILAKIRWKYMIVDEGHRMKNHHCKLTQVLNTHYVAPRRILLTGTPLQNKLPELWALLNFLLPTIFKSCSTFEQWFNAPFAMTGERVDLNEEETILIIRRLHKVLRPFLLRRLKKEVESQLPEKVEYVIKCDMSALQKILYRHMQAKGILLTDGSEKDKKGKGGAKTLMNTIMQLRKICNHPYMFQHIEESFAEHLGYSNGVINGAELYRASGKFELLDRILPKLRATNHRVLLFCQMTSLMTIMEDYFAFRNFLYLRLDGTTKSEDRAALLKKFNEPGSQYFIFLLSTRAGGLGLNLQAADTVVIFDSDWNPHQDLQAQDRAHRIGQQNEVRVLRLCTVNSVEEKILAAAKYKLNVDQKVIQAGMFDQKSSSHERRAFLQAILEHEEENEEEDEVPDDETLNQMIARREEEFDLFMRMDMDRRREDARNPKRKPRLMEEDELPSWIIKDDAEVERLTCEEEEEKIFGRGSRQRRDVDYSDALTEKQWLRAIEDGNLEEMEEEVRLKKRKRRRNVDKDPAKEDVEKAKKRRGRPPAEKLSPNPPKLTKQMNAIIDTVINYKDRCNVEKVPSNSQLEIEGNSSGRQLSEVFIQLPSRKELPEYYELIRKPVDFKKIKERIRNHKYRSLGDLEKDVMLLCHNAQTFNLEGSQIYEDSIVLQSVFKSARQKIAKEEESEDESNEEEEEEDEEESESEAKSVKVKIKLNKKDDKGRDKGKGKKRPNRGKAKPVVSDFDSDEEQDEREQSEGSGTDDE

| IC50 (BRM) [nM] | Ratio* (BRG1 IC50 (μM) divided by BRM IC50 (μM)) (BRM) | IC50 (BRG-1) [nM] | Compound |
| --- | --- | --- | --- |
| 82.8 | 19.92 | 1650 | CC(F)(F)c1cccc(-c2ccc3cnc(CNC(=O)c4ccc5c(c4)S(=O)(=O)CCOC5)cc3n2)n1 [Compound 281] |
| 4.2 | 4.64 | 19.3 | C[C@@H]1CN(c2cccc(-c3ccc4cnc(CNC(=O)c5ccc6c(c5)S(=O)(=O)CCOC6)cc4n3)n2)C[C@H](C)O1 [Compound 282] |
| 12.1 | 14.69 | 178 | CN(C)c1cccc(-c2ccc3cnc(CNC(=O)c4cc(F)c5c(c4)S(=O)(=O)CCOC5)cc3n2)n1 [Compound 284] |
| 19.3 | 25.69 | 497 | O=C(NCc1cc2nc(-c3cccc(OC(F)F)n3)ccc2cn1)c1ccc2c(c1)S(=O)(=O)CCOC2 [Compound 285] |
| 351 | 13.91 | 4890 | N=S1(=O)CCOCc2ccc(C(=O)NCc3cc4nc(-c5cncc(C6CC6)n5)ccc4cn3)cc21 (stereo not drawn) [Compound 286] |
| 24.2 | 24.53 | 594 | O=C(NCc1cc2nc(-c3cncc(C4CC4)n3)ccc2cn1)c1cc(F)c2c(c1)S(=O)(=O)CCOC2 [Compound 287] |
| 59.8 | 16.01 | 958 | CC(C)c1cccc(-c2ccc3cnc(CNC(=O)c4ccc5c(c4)S(=O)(=O)CCOC5)cc3n2)n1 [Compound 289] |
| 10.3 | 9.47 | 97.2 | [2H]C([2H])([2H])N(c1cccc(-c2ccc3cnc(CNC(=O)c4ccc5c(c4)S(=O)(=O)CCOC5)cc3n2)n1)C([2H])([2H])[2H] [Compound 291] |

The remaining lines, values behind:

| Compound | IC50 (BRM) [nM] | Ratio* (BRG1 IC50 (μM) divided by BRM IC50 (μM)) (BRM) | IC50 (BRG-1) [nM] |
| --- | --- | --- | --- |
| Cc1ccc(C(=O)NCc2cc3nc(-c4cncc(C5CC5)n4)ccc3cn2)cc1S(=O)(=O)N(C)C [Compound 283] | 197 | 17.67 | 3480 |
| CN(C)S(=O)(=O)c1cc(C(=O)NCc2cc3nc(-c4cncc(C5CC5)n4)ccc3cn2)ccc1Cl [Compound 288] | 197 | 17.58 | 3460 |
| O=C(NCc1cc2c(cn1)CCN(c1cncc(C3CC3)n1)C2)c1ccc2c(c1)S(=O)(=O)CCOC2 [Compound 290] | 172 | 7.19 | 1240 |
| CS(=O)(=O)c1cc(C(=O)NCc2cc3nc(-c4cncc(C5CC5)n4)ccc3cn2)ccc1F [Compound 292] | 667 | 7.50 | 5000 |
| O=C(NCc1cc2nc(-c3cncc(C4CC4)n3)ccc2cn1)c1ccc2c(c1)S(=O)(=O)NCCC2 [Compound 293] | 223 | 10.84 | 2410 |
| CS(=O)(=O)c1cc(C(=O)NCc2cc3nc(-c4cncc(C5CC5)n4)ccc3cn2)ccc1Cl [Compound 294] | 156 | 17.37 | 2710 |
| CS(=O)(=O)c1cc(F)cc(C(=O)NCc2cc3nc(-c4cncc(C5CC5)n4)ccc3cn2)c1 [Compound 295] | 385 | 12.98 | 5000 |
| CC(C)S(=O)(=O)c1cccc(C(=O)NCc2cc3nc(-c4cncc(C5CC5)n4)ccc3cn2)c1 [Compound 296] | 316 | 15.84 | 5000 |
| CN1CCCc2ccc(C(=O)NCc3cc4nc(-c5cncc(C6CC6)n5)ccc4cn3)cc2S1(=O)=O [Compound 297] | 140 | 14.47 | 2030 |
| Cc1ncc(C(=O)NCc2cc3nc(-c4cncc(C5CC5)n4)ccc3cn2)cc1S(C)(=O)=O [Compound 298] | 221 | 9.90 | 2190 |
| O=C(NCc1cc2nc(-c3cncc(C4CC4)n3)ccc2cn1)c1ccc2c(c1)[S+]([O-])CCOC2 (stereo not drawn) [Compound 299] | 869 | 7.32 | 6360 |
| Cc1ccc(C(=O)NCc2cc3nc(-c4cncc(C5CC5)n4)ccc3cn2)cc1S(C)(=O)=O [Compound 300] | 64.7 | 11.32 | 733 |
| CN(C)S(=O)(=O)c1cccc(C(=O)NCc2cc3nc(-c4cncc(C5CC5)n4)ccc3cn2)c1 [Compound 301] | 858 | 10.34 | 8880 |
